In patent publication US20120172340A1, “Compositions and Methods for Selectively Activating Human Sirtuins” (BIOMOL International L.P., priority 2004, published 2012):
Numbering of substitutions follows the chain as printed.

Assays:
human SIRT1 = target: T1, human SIRT1 (Homo sapiens, UniProt Q96EB6); test: SIRT1 rate measurement, fluorogenic p53-382 peptide deacetylation; format: biochemical
T1 construct: made in house; host or cells: E. coli
T1 sequence (Q96EB6 1-747): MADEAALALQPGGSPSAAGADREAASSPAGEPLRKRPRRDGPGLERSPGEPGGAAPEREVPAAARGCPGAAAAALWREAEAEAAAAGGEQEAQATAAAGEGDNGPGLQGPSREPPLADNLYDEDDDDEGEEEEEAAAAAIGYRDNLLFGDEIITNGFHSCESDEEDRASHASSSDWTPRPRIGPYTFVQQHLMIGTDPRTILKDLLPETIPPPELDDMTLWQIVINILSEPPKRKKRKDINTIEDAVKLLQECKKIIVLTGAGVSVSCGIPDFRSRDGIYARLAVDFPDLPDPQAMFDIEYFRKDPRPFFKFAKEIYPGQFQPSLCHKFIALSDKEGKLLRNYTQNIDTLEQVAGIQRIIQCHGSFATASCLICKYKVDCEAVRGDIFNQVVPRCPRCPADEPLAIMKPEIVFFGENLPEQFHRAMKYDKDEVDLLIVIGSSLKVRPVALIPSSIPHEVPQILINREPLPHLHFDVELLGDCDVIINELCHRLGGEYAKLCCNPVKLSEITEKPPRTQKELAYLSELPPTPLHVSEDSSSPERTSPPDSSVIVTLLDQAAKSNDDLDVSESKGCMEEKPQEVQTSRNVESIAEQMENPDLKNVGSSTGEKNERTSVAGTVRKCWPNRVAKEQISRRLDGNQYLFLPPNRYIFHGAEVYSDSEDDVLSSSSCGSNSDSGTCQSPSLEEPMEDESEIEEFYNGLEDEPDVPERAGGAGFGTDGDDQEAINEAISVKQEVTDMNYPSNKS

SIRT5Δ1-39 = target: T2, SIRT5Δ1-39 (Homo sapiens, UniProt Q9NXA8); test: Deacetylation activity of N-terminally truncated SIRT5; format: biochemical; conditions: 500 μM resveratrol; 1 mM p53-382 peptide, 12 mM NAD+; compared with full-length SIRT5
T2 construct: in which the first 39 residues were deleted (SIRT5Δ1-39); made in house
T2 sequence (Q9NXA8 40-310): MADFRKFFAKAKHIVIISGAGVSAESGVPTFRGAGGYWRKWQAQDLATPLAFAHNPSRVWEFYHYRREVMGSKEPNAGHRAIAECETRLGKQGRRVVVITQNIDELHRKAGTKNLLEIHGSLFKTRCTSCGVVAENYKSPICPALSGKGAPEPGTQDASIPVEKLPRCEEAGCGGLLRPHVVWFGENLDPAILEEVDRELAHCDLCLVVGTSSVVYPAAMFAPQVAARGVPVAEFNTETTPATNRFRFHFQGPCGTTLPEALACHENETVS

dSir2 = target: T3, dSir2 (Drosophila melanogaster, UniProt Q9VK34, DEL53-54/DUP289-290/L518H/P746H/V753F); test: Resveratrol dose-response, fluorogenic deacetylation, dSir2; format: biochemical, D. melanogaster; conditions: 25° C., 50 μM NAD+, 50 μM Fluor de Lys acetylated lysine substrate; FIG. 1
T3 construct: made in house; host or cells: E. coli

ySir2 = target: T4, ySir2 (Saccharomyces cerevisiae, UniProt P06700); test: Resveratrol dose-response, fluorogenic deacetylation, ySir2; format: biochemical, S. cerevisiae (budding yeast); conditions: 30° C., 200 μM NAD+, 200 μM p53-382; FIG. 1
T4 construct: made in house; host or cells: E. coli

human SIRT3 = target: T5, human SIRT3 (Homo sapiens, UniProt Q9NTG7); test: Resveratrol dose-response, fluorogenic deacetylation, SIRT3; format: biochemical; conditions: 37° C., 25 μM NAD+, 25 μM p53-320; FIG. 1
T5 construct: made in house; host or cells: E. coli
T5 sequence (Q9NTG7 1-399): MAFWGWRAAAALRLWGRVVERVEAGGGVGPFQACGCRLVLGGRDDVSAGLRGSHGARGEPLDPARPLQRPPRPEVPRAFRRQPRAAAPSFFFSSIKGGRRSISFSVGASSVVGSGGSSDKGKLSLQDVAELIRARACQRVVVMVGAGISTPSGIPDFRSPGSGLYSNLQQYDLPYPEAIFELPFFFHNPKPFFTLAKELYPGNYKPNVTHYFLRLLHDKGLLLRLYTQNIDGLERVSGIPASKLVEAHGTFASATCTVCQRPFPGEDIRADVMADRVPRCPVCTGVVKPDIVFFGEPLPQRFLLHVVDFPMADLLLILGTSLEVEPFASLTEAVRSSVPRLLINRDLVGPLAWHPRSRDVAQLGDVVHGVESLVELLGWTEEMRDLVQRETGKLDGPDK

E230K mutant SIRT1 = target: T6, E230K mutant SIRT1 (Homo sapiens, UniProt Q96EB6, E230K); test: Resveratrol dose-response, fluorogenic deacetylation, E230K mutant SIRT1; format: biochemical; conditions: 37° C., 25 μM NAD+, 25 μM p53-382; FIG. 1A
T6 construct: made in house; host or cells: E. coli
T6 sequence (Q96EB6 1-747 E230K): T1 sequence (Q96EB6 1-747) with E230K

human SIRT5 = target: T7, human SIRT5 (Homo sapiens, UniProt Q9NXA8); conditions: 500 μM resveratrol; saturating NAD+ (12 mM)
T7 sequence (Q9NXA8 37-310): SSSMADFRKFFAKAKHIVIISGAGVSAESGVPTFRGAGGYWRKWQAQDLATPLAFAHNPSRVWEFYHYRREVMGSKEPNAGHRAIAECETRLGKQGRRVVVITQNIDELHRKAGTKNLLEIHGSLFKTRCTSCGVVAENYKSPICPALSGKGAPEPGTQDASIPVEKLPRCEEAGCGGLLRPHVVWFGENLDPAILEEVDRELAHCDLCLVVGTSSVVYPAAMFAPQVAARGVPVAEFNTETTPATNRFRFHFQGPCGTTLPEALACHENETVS

T4 sequence (P06700 whole entry): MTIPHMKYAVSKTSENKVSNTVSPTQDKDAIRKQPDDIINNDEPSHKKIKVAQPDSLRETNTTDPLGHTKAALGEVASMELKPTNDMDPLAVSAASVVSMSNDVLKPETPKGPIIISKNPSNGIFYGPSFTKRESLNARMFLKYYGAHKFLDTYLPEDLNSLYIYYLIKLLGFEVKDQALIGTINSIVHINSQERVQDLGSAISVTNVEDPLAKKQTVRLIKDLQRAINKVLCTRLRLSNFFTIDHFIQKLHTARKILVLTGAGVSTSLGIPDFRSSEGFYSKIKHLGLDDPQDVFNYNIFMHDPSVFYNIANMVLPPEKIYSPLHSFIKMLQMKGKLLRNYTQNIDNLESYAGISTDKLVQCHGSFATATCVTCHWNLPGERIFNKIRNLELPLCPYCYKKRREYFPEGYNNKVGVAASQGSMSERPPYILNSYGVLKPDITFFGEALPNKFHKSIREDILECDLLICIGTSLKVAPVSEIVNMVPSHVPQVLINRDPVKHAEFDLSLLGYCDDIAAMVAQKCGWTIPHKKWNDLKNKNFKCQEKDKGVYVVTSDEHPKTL
T3 sequence (Q9VK34 other isoform, or with tags, fused parts or gaps DEL53-54/DUP289-290/L518H/P746H/V753F): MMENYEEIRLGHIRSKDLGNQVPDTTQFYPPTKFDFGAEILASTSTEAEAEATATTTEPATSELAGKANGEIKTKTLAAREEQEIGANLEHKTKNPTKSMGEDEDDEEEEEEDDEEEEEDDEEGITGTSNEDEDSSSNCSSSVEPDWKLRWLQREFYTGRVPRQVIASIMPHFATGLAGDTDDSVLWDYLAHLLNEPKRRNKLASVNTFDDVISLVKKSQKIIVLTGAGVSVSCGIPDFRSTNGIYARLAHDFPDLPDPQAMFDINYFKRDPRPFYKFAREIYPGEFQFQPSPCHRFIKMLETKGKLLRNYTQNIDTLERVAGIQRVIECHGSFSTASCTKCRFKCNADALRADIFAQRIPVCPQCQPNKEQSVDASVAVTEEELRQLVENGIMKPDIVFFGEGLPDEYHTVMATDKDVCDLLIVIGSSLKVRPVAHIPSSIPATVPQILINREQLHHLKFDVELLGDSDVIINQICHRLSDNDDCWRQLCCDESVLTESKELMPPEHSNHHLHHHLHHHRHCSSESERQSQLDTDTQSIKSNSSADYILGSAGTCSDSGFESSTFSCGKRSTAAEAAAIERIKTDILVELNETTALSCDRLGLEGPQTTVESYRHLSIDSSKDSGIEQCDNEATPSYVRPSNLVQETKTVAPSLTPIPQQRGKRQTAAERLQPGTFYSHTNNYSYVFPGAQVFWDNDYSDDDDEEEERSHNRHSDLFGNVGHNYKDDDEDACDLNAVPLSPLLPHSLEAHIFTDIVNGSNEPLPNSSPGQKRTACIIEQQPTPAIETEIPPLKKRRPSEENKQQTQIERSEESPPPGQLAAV

Oc1ccc(/C=C/c2cc(O)cc(O)c2)cc1 [Resveratrol, 3,5,4′-Trihydroxy-trans-stilbene]
resveratrol-dependent rate increase, human SIRT1 (human SIRT1; 37° C., 25 μM NAD+, 25 μM p53-382, FIG. 1): rate increases are seen
resveratrol concentration at which maximum rate stimulation occurred, SIRT1 (human SIRT1; FIG. 1A): > 100 µM
stimulation of SIRT5Δ1-39 deacetylation activity (SIRT5Δ1-39): similarly stimulated
resveratrol-dependent rate increase, dSir2 (dSir2): rate increases are seen
resveratrol-dependent rate increase, ySir2 (ySir2): rate increases are seen
resveratrol-dependent rate increase, human SIRT3 (human SIRT3): not
resveratrol activation of E230K mutant SIRT1 (E230K mutant SIRT1): diminished resveratrol activation
lowering of the Km for the p53-382 peptide (human SIRT5): more than ten-fold
